Measured values as given in patent publication US9555039B2, “Piperidine derivatives and compositions for the inhibition of nicotinamide phosphoribosyltransferase (NAMPT)” (Forma TM, LLC., priority 2011, dated 2017).

Legend:
[1] = test system: A2780 cells; assay: In-vitro cell proliferation assay (SRB, 72 hours); type: cell-based; conditions: Homo sapiens, sulforhodamine B (SRB) assay
Procedure, shortened: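 Background from media-only plate subtracted; inhibition relative to DMSO-treated cells, value derived by interpolation between two concentrations.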

[2] = biological target: T1, Recombinant His-tagged NAMPT (Homo sapiens, UniProt P43490); assay: Biochemical inhibition assay: NAMPT enzymatic reaction, NMN quantified by mass spectrometry; conditions: 33 nM NAMPT, 1 μM NAM, 100 μM PRPP, 2.5 mM ATP, 30 minutes at room temperature; read-out: Biochem IC50
T1 construct: His; host or cells: E. coli
Procedure, shortened: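 Reaction 30 min at room temperature with 1 μM NAM, 100 μM PRPP, 2.5 mM ATP (final), quenched with formic acid. NMN quantified by RapidFire electrospray MS, normalized to L-cystathionine; IC50 from percent inhibition versus DMSO.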

T1 sequence (P43490 whole entry): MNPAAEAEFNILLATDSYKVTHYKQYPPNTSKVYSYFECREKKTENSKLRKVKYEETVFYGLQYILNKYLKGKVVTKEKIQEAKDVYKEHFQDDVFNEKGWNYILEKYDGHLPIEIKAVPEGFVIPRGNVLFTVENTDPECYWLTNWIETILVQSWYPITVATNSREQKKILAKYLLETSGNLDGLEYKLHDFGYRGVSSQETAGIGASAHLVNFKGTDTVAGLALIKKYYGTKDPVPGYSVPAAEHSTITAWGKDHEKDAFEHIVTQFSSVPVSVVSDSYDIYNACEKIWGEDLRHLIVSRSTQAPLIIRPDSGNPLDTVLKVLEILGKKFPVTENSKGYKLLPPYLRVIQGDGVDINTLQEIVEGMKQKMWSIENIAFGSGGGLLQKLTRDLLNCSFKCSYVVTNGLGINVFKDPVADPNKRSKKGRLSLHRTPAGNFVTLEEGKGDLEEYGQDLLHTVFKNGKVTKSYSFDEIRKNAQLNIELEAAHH

| Structure (SMILES) | IC50 [1] [nM] | IC50 [2] [nM] |
| --- | --- | --- |
| CC(C)c1ccc(C(=O)N2CCC(CCCCNC(=O)c3cc4cnccc4[nH]3)CC2)nc1 [N-[4-(1-{[5-(propan-2-yl)pyridin-2-yl]carbonyl}piperidin-4-yl)butyl]-1H-pyrrolo[3,2-c]pyridine-2-carboxamide] | 14.1 | 163 |
| Cc1ncccc1C(=O)N1CCC(CCCCNC(=O)c2ccc3nccn3c2)CC1 [N-(4-{1-[(2-methylpyridin-3-yl)carbonyl]piperidin-4-yl}butyl)imidazo[1,2-a]pyridine-6-carboxamide] | 1.8 | 9.8 |
| Cc1cnc(C(=O)N2CCC(CCCCNC(=O)c3cc4ccncc4s3)CC2)cn1 [N-(4-{1-[(5-methylpyrazin-2-yl)carbonyl]piperidin-4-yl}butyl)thieno[2,3-c]pyridine-2-carboxamide] | 100 to 1000 | 68.5 |
| O=C(NCCCCC1CCN(C(=O)c2ccc(F)cc2)CC1)c1cc2ccncc2s1 [N-(4-{1-[(4-fluorophenyl)carbonyl]piperidin-4-yl}butyl)thieno[2,3-c]pyridine-2-carboxamide] | 100 to 1000 | 51.8 |
| COCc1ccc(C(=O)N2CCC(CCCCNC(=O)c3ccc4nccn4c3)CC2)nc1 [N-[4-(1-{[5-(methoxymethyl)pyridin-2-yl]carbonyl}piperidin-4-yl)butyl]imidazo[1,2-a]pyridine-6-carboxamide] | 67.1 | 57.4 |
| COc1ccc(C(=O)N2CCC(CCCCNC(=O)c3cc4ccncc4s3)CC2)cc1 [N-(4-{1-[(4-methoxyphenyl)carbonyl]piperidin-4-yl}butyl)thieno[2,3-c]pyridine-2-carboxamide] | 80.3 | 52.2 |
| CCOc1ccccc1C(=O)N1CCC(CCCCNC(=O)c2cc3cnccc3[nH]2)CC1 [N-(4-{1-[(2-ethoxyphenyl)carbonyl]piperidin-4-yl}butyl)-1H-pyrrolo[3,2-c]pyridine-2-carboxamide] | 0.5 | 30.5 |
| COc1ccccc1C(=O)N1CCC(CCCCNC(=O)c2cc3cnccc3[nH]2)CC1 [N-(4-{1-[(2-methoxyphenyl)carbonyl]piperidin-4-yl}butyl)-1H-pyrrolo[3,2-c]pyridine-2-carboxamide] | 1.9 | 14.4 |
| O=C(NCCCCC1CCN(C(=O)c2cccc(Cl)c2Cl)CC1)c1cc2cnccc2[nH]1 [N-(4-{1-[(2,3-dichlorophenyl)carbonyl]piperidin-4-yl}butyl)-1H-pyrrolo[3,2-c]pyridine-2-carboxamide] | 3.2 | 31.2 |
| Cc1nc(CC(=O)N2CCC(CCCCNC(=O)c3ccc4nccn4c3)CC2)cs1 [N-(4-{1-[2-(2-methyl-1,3-thiazol-4-yl)acetyl]piperidin-4-yl}butyl)imidazo[1,2-a]pyridine-6-carboxamide] | 28 | 18.9 |
| CCOc1ncccc1C(=O)N1CCC(CCCCNC(=O)c2cc3cnccc3[nH]2)CC1 [N-(4-{1-[(2-ethoxypyridin-3-yl)carbonyl]piperidin-4-yl}butyl)-1H-pyrrolo[3,2-c]pyridine-2-carboxamide] | 0.6 | 20.6 |
| O=C(NCCCCC1CCN(C(=O)c2ccc(C(F)(F)F)nc2)CC1)c1cc2ccncc2s1 [N-[4-(1-{[6-(trifluoromethyl)pyridin-3-yl]carbonyl}piperidin-4-yl)butyl]thieno[2,3-c]pyridine-2-carboxamide] | 414 | 90.3 |
| O=C(NCCCCC1CCN(C(=O)c2ccc3nccn3c2)CC1)c1cc2cnccc2[nH]1 [N-{4-[1-({imidazo[1,2-a]pyridin-6-yl}carbonyl)piperidin-4-yl]butyl}-1H-pyrrolo[3,2-c]pyridine-2-carboxamide] | 13.8 | 7.7 |
| O=C(NCCCCC1CCN(C(=O)c2ccccc2F)CC1)c1ccc2nccn2c1 [N-(4-{1-[(2-fluorophenyl)carbonyl]piperidin-4-yl}butyl)imidazo[1,2-a]pyridine-6-carboxamide] | 0.5 | 3.8 |
| O=C(NCCC1CCN(S(=O)(=O)c2ccccc2)CC1)c1cc2cnccc2[nH]1 [N-{2-[1-(benzenesulfonyl)piperidin-4-yl]ethyl}-1H-pyrrolo[3,2-c]pyridine-2-carboxamide] | 1030 | 50.9 |
| O=C(NCCc1ccc(-c2ccccc2)cc1)c1cc2cnccc2[nH]1 [N-[2-(4-phenylphenyl)ethyl]-1H-pyrrolo[3,2-c]pyridine-2-carboxamide] | 3980 | 126 |
| COc1ccc(OC)c(C(=O)N2CCC(CCCCNC(=O)c3cc4ccncc4s3)CC2)c1 [N-(4-{1-[(2,5-dimethoxyphenyl)carbonyl]piperidin-4-yl}butyl)thieno[2,3-c]pyridine-2-carboxamide] | 2.9 | 5.5 |
| O=C(NCCCCC1CCN(C(=O)c2cnccc2C(F)(F)F)CC1)c1cc2cnccc2[nH]1 [N-[4-(1-{[4-(trifluoromethyl)pyridin-3-yl]carbonyl}piperidin-4-yl)butyl]-1H-pyrrolo[3,2-c]pyridine-2-carboxamide] | 2.9 | 39.8 |

| Structure (SMILES) | IC50 [1] [nM] | IC50 [2] [nM] |
| --- | --- | --- |
| COc1ccc(Cl)cc1C(=O)N1CCC(CCCCNC(=O)c2cc3ccncc3s2)CC1 [N-(4-{1-[(5-chloro-2-methoxyphenyl)carbonyl]piperidin-4-yl}butyl)thieno[2,3-c]pyridine-2-carboxamide] | 3.3 | 14.1 |
| O=C(NCCCCC1CCN(C(=O)c2ccc(-n3cccn3)cc2)CC1)c1cc2ccncc2s1 [N-[4-(1-{[4-(1H-pyrazol-1-yl)phenyl]carbonyl}piperidin-4-yl)butyl]thieno[2,3-c]pyridine-2-carboxamide] | 100 to 1000 | 48.1 |
| CC(C)c1ncoc1C(=O)N1CCC(CCCCNC(=O)c2ccc3nccn3c2)CC1 [N-[4-(1-{[4-(propan-2-yl)-1,3-oxazol-5-yl]carbonyl}piperidin-4-yl)butyl]imidazo[1,2-a]pyridine-6-carboxamide] | 8.2 | 27.5 |
| COc1ccc(C(=O)N2CCC(CCCCNC(=O)c3ccc4nccn4c3)CC2)cc1 [N-(4-{1-[(4-methoxyphenyl)carbonyl]piperidin-4-yl}butyl)imidazo[1,2-a]pyridine-6-carboxamide] | 57.6 | 23.2 |
| O=C(NCCCCC1CCN(C(=O)c2ccc3ncsc3c2)CC1)c1ccc2nccn2c1 [N-(4-{1-[(1,3-benzothiazol-6-yl)carbonyl]piperidin-4-yl}butyl)imidazo[1,2-a]pyridine-6-carboxamide] | 39.3 | 23.7 |
| O=C(NCCCCC1CCN(C(=O)c2ccc3c(c2)OCO3)CC1)c1ccc2nccn2c1 [N-(4-{1-[(2H-1,3-benzodioxol-5-yl)carbonyl]piperidin-4-yl}butyl)imidazo[1,2-a]pyridine-6-carboxamide] | 29.2 | 21.3 |
| COc1cccc(OC)c1C(=O)N1CCC(CCCCNC(=O)c2cc3cnccc3[nH]2)CC1 [N-(4-{1-[(2,6-dimethoxyphenyl)carbonyl]piperidin-4-yl}butyl)-1H-pyrrolo[3,2-c]pyridine-2-carboxamide] | 1.4 | 21.5 |
| O=C(NCCCCC1CCN(C(=O)c2cnc(C(F)(F)F)nc2)CC1)c1cc2cnccc2[nH]1 [N-[4-(1-{[2-(trifluoromethyl)pyrimidin-5-yl]carbonyl}piperidin-4-yl)butyl]-1H-pyrrolo[3,2-c]pyridine-2-carboxamide] | 100 to 1000 | 242 |
| O=C(NCCCCC1CCN(C(=O)c2ccccn2)CC1)c1cc2cnccc2[nH]1 [N-(4-{1-[(pyridin-2-yl)carbonyl]piperidin-4-yl}butyl)-1H-pyrrolo[3,2-c]pyridine-2-carboxamide] | 6.3 | 30.6 |
| CC(C)c1ccc(C(=O)N2CCC(CCCCNC(=O)c3ccc4nccn4c3)CC2)nc1 [N-[4-(1-{[5-(propan-2-yl)pyridin-2-yl]carbonyl}piperidin-4-yl)butyl]imidazo[1,2-a]pyridine-6-carboxamide] | 52.9 | 56.7 |
| O=C(NCCCCC1CCN(C(=O)C2CCCCC2)CC1)c1cc2cnccc2[nH]1 [N-[4-(1-cyclohexanecarbonylpiperidin-4-yl)butyl]-1H-pyrrolo[3,2-c]pyridine-2-carboxamide] | 15.5 | 180 |
| Cc1ccc(C(=O)N2CCC(CCCCNC(=O)c3cc4cnccc4[nH]3)CC2)cc1F [N-(4-{1-[(3-fluoro-4-methylphenyl)carbonyl]piperidin-4-yl}butyl)-1H-pyrrolo[3,2-c]pyridine-2-carboxamide] | 22.4 | 77.1 |
| Cc1cccc(C(=O)N2CCC(CCCCNC(=O)c3ccc4nccn4c3)CC2)c1F [N-(4-{1-[(2-fluoro-3-methylphenyl)carbonyl]piperidin-4-yl}butyl)imidazo[1,2-a]pyridine-6-carboxamide] | 12.7 | 22.6 |
| COc1ncc(Cl)cc1C(=O)N1CCC(CCCCNC(=O)c2ccc3nccn3c2)CC1 [N-(4-{1-[(5-chloro-2-methoxypyridin-3-yl)carbonyl]piperidin-4-yl}butyl)imidazo[1,2-a]pyridine-6-carboxamide] | 3.3 | 12.3 |
| COc1ccc(OC)c(C(=O)N2CCC(CCCCNC(=O)c3cc4cnccc4[nH]3)CC2)c1 [N-(4-{1-[(2,5-dimethoxyphenyl)carbonyl]piperidin-4-yl}butyl)-1H-pyrrolo[3,2-c]pyridine-2-carboxamide] | 2.2 | 15.5 |
| O=C(NCCCCC1CCN(C(=O)C2CCCCC2)CC1)c1cc2ccncc2s1 [N-[4-(1-cyclohexanecarbonylpiperidin-4-yl)butyl]thieno[2,3-c]pyridine-2-carboxamide] | 72.7 | 77.9 |
| O=C(NCCCCC1CCN(C(=O)c2cc(Cl)cc(Cl)c2)CC1)c1cc2cnccc2[nH]1 [N-(4-{1-[(3,5-dichlorophenyl)carbonyl]piperidin-4-yl}butyl)-1H-pyrrolo[3,2-c]pyridine-2-carboxamide] | 13 | 81.3 |
